Source: ChEMBL document CHEMBL1201862, “PubChem BioAssay data set” (2004)
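Method: 48-hour compound exposure of cells in 96-well plates, five concentrations, linear interpolation of endpoints. GI50: concentration for 50% inhibition of growth.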 Calls of active or inactive are those of the source. Cut-off read from the data, not from the text of the source: active = GI50 up to about 1.1 µM and inactive = higher.

How the values were obtained:
Assay in all cases: growth of human tumour cells (NCI), 48 h
CCRF-CEM = test system: CCRF-CEM
DMS-114 = test system: DMS-114
DMS-273 = test system: DMS-273
HCC 2998 = test system: HCC 2998
HL-60 = test system: HL-60
HOP-92 = test system: HOP-92
HT-29 = test system: HT-29
KM12 = test system: KM12
NCI-H226 = test system: NCI-H226
NCI-H23 = test system: NCI-H23
OVCAR-3 = test system: OVCAR-3
OVCAR-5 = test system: OVCAR-5
OVCAR-8 = test system: OVCAR-8
RPMI-8226 = test system: RPMI-8226
SK-MEL-5 = test system: SK-MEL-5
SR = test system: SR

Structure (SMILES) | GI50 (CCRF-CEM) | GI50 (DMS-114) | GI50 (DMS-273) | GI50 (HCC 2998) | GI50 (HL-60) | GI50 (HOP-92) | GI50 (HT-29) | GI50 (KM12) | GI50 (NCI-H226) | GI50 (NCI-H23) | GI50 (OVCAR-3) | GI50 (OVCAR-5) | GI50 (OVCAR-8) | GI50 (RPMI-8226) | GI50 (SK-MEL-5) | GI50 (SR)
Cc1cccc(C(C)(C)C)c1NC(=O)CCc1n[nH]c(=S)o1 | > 100 µM (inactive) | 43.3 µM (inactive) | 40.9 µM (inactive) | > 100 µM (inactive) | > 100 µM (inactive) | > 100 µM (inactive) | > 100 µM (inactive) | > 100 µM (inactive) | 0.3 µM (active) | > 100 µM (inactive) | > 100 µM (inactive) | > 100 µM (inactive) | > 100 µM (inactive) | 22.8 µM (inactive) | > 100 µM (inactive) | –
Cn1c(=O)oc2cc(C3CCC(=O)N3Cc3csc(-c4ccccc4)n3)ccc21 (stereo not given) | > 100 µM (inactive) | > 100 µM (inactive) | 89.5 µM (inactive) | > 100 µM (inactive) | 79.8 µM (inactive) | – | 79.1 µM (inactive) | 76.2 µM (inactive) | > 100 µM (inactive) | > 100 µM (inactive) | – | > 100 µM (inactive) | > 100 µM (inactive) | > 100 µM (inactive) | > 100 µM (inactive) | 63.7 µM (inactive)
Cc1cccc(C)c1NC(=O)CCc1nnc2s/c(=C\c3ccc(Cl)cc3)c(=O)n12 | > 100 µM (inactive) | > 100 µM (inactive) | 54.6 µM (inactive) | > 100 µM (inactive) | > 100 µM (inactive) | > 100 µM (inactive) | > 100 µM (inactive) | > 100 µM (inactive) | 97.5 µM (inactive) | > 100 µM (inactive) | > 100 µM (inactive) | > 100 µM (inactive) | > 100 µM (inactive) | 61 µM (inactive) | > 100 µM (inactive) | > 100 µM (inactive)
CC(=O)O[C@H]1CC[C@@]2(C)C(=CC[C@H]3C(CC#N)[C@@](C)(C#N)CCC32)C1 (stereo not given in full) | > 100 µM (inactive) | > 100 µM (inactive) | > 100 µM (inactive) | > 100 µM (inactive) | > 100 µM (inactive) | 16.1 µM (inactive) | > 100 µM (inactive) | > 100 µM (inactive) | > 100 µM (inactive) | > 100 µM (inactive) | > 100 µM (inactive) | > 100 µM (inactive) | > 100 µM (inactive) | > 100 µM (inactive) | > 100 µM (inactive) | –
O=CN1CCN(C=S)CC1 | > 100 µM (inactive) | > 100 µM (inactive) | > 100 µM (inactive) | > 100 µM (inactive) | > 100 µM (inactive) | > 100 µM (inactive) | > 100 µM (inactive) | > 100 µM (inactive) | > 100 µM (inactive) | > 100 µM (inactive) | > 100 µM (inactive) | > 100 µM (inactive) | > 100 µM (inactive) | > 100 µM (inactive) | > 100 µM (inactive) | 54.5 µM (inactive)
C[n+]1ccc(Nc2ccc(NC(=O)c3ccc(Nc4cc[n+](C)c5ccc([N+](=O)[O-])cc45)cc3[N+](=O)[O-])cc2)cc1 | 33.2 µM (inactive) | 0.692 µM (active) | 27.2 µM (inactive) | – | – | 26.9 µM (inactive) | > 100 µM (inactive) | 47.8 µM (inactive) | 50.4 µM (inactive) | 29.7 µM (inactive) | 17.8 µM (inactive) | > 100 µM (inactive) | 22.8 µM (inactive) | 13.3 µM (inactive) | 23.3 µM (inactive) | > 100 µM (inactive)
Cc1c(C2Cc3ccccc3N2)c2ccccc2n1C (stereo not given) | > 100 µM (inactive) | > 100 µM (inactive) | > 100 µM (inactive) | > 100 µM (inactive) | > 100 µM (inactive) | – | > 100 µM (inactive) | > 100 µM (inactive) | > 100 µM (inactive) | > 100 µM (inactive) | > 100 µM (inactive) | > 100 µM (inactive) | > 100 µM (inactive) | – | > 100 µM (inactive) | > 100 µM (inactive)
NC(CCCCNCc1ccccc1O)C(=O)O (stereo not given) | > 100 µM (inactive) | > 100 µM (inactive) | > 100 µM (inactive) | > 100 µM (inactive) | > 100 µM (inactive) | > 100 µM (inactive) | > 100 µM (inactive) | > 100 µM (inactive) | > 100 µM (inactive) | > 100 µM (inactive) | > 100 µM (inactive) | > 100 µM (inactive) | > 100 µM (inactive) | > 100 µM (inactive) | > 100 µM (inactive) | –
O=C1NC2OC(CO)C(O)C(O1)C2O (stereo not given) | > 100 µM (inactive) | > 100 µM (inactive) | > 100 µM (inactive) | – | > 100 µM (inactive) | > 100 µM (inactive) | > 100 µM (inactive) | > 100 µM (inactive) | > 100 µM (inactive) | > 100 µM (inactive) | > 100 µM (inactive) | > 100 µM (inactive) | > 100 µM (inactive) | > 100 µM (inactive) | > 100 µM (inactive) | > 100 µM (inactive)
N#CCCN(c1ccc(/C=C2\N=C(c3ccc(Cl)cc3)OC2=O)cc1)S(=O)(=O)c1ccccc1 | – | > 100 µM (inactive) | > 100 µM (inactive) | > 100 µM (inactive) | > 100 µM (inactive) | – | > 100 µM (inactive) | > 100 µM (inactive) | 96.2 µM (inactive) | > 100 µM (inactive) | > 100 µM (inactive) | > 100 µM (inactive) | > 100 µM (inactive) | > 100 µM (inactive) | > 100 µM (inactive) | > 100 µM (inactive)
O=c1c2cccnc2ncn1CCCN1CCOCC1 | > 100 µM (inactive) | > 100 µM (inactive) | > 100 µM (inactive) | > 100 µM (inactive) | – | > 100 µM (inactive) | > 100 µM (inactive) | > 100 µM (inactive) | > 100 µM (inactive) | > 100 µM (inactive) | > 100 µM (inactive) | > 100 µM (inactive) | > 100 µM (inactive) | – | > 100 µM (inactive) | > 100 µM (inactive)
COc1cc(-c2n[nH]cc2CCCC(=O)Nc2ccccc2[N+](=O)[O-])ccc1O | 55.7 µM (inactive) | 25.4 µM (inactive) | 66.7 µM (inactive) | > 100 µM (inactive) | 35.9 µM (inactive) | 91.8 µM (inactive) | > 100 µM (inactive) | – | > 100 µM (inactive) | > 100 µM (inactive) | – | > 100 µM (inactive) | > 100 µM (inactive) | 40.2 µM (inactive) | 61.4 µM (inactive) | 46.9 µM (inactive)
O=C1CCC(=O)N2CCCCN12 | > 100 µM (inactive) | > 100 µM (inactive) | > 100 µM (inactive) | > 100 µM (inactive) | > 100 µM (inactive) | > 100 µM (inactive) | > 100 µM (inactive) | > 100 µM (inactive) | > 100 µM (inactive) | > 100 µM (inactive) | > 100 µM (inactive) | > 100 µM (inactive) | > 100 µM (inactive) | – | > 100 µM (inactive) | –
CC1C=C(OC(=O)c2ccccc2)C(=O)C(n2cc(F)c(=O)[nH]c2=O)O1 (stereo not given) | 45.1 µM (inactive) | > 100 µM (inactive) | 42.8 µM (inactive) | 5.56 µM (inactive) | 64.3 µM (inactive) | > 100 µM (inactive) | 18.9 µM (inactive) | 46 µM (inactive) | > 100 µM (inactive) | 53.6 µM (inactive) | > 100 µM (inactive) | > 100 µM (inactive) | 84.3 µM (inactive) | 23.9 µM (inactive) | 91 µM (inactive) | –
CC(C)CC(CNC(Cc1ccc(Cl)cc1)C(N)=O)NC(=O)C(Cc1c[nH]cn1)NC(=O)CNC(=O)C(NC(=O)C(C)NC(=O)C(Cc1c[nH]c2ccccc12)NC(=O)C(CCC(=O)O)NC(=O)C(N)Cc1ccccc1)C(C)C (stereo not given) | > 133 µM (inactive) | 119 µM (inactive) | > 133 µM (inactive) | > 133 µM (inactive) | > 133 µM (inactive) | < 0.0133 µM (active) | > 133 µM (inactive) | > 133 µM (inactive) | – | > 133 µM (inactive) | > 133 µM (inactive) | – | > 133 µM (inactive) | > 133 µM (inactive) | – | > 133 µM (inactive)
CN(CCCN1C(=O)c2cccc3cc([N+](=O)[O-])cc(c23)C1=O)CCN(C)CCCN1C(=O)c2cccc3cc([N+](=O)[O-])cc(c23)C1=O | 6.34 µM (inactive) | 33.6 µM (inactive) | 11.4 µM (inactive) | 21.2 µM (inactive) | 19.6 µM (inactive) | – | 7.67 µM (inactive) | 24.7 µM (inactive) | > 39.3 µM (inactive) | > 39.3 µM (inactive) | > 39.3 µM (inactive) | > 39.3 µM (inactive) | 2.74 µM (inactive) | 2.23 µM (inactive) | 17.4 µM (inactive) | –
O=C(Cc1nc2ccccc2s1)C(=O)Nc1ccc(Cl)cc1 | – | > 100 µM (inactive) | > 100 µM (inactive) | > 100 µM (inactive) | > 100 µM (inactive) | > 100 µM (inactive) | > 100 µM (inactive) | > 100 µM (inactive) | > 100 µM (inactive) | > 100 µM (inactive) | > 100 µM (inactive) | > 100 µM (inactive) | > 100 µM (inactive) | > 100 µM (inactive) | > 100 µM (inactive) | –
c1ccc2c(c1)Cc1c(Cc3csc4ccccc34)ccc3cccc-2c13 | > 100 µM (inactive) | > 100 µM (inactive) | > 100 µM (inactive) | > 100 µM (inactive) | > 100 µM (inactive) | > 100 µM (inactive) | > 100 µM (inactive) | > 100 µM (inactive) | – | > 100 µM (inactive) | > 100 µM (inactive) | > 100 µM (inactive) | > 100 µM (inactive) | > 100 µM (inactive) | > 100 µM (inactive) | –
